Measured values taken from article PMC11059313 (Methods in molecular biology (Clifton, N.J.), 2023).
Non-standard residues stand in square brackets, D forms with d. No end group written: not given here. pY = N[C@@H](Cc1ccc(OP(=O)(O)O)cc1)C(=O)O

T1: p120RasGAP N-terminal SH2 domain (residues 174-280, C236S, C261S) (UniProt P20936 174-280, C236S | C261S)
T1 sequence (looked up): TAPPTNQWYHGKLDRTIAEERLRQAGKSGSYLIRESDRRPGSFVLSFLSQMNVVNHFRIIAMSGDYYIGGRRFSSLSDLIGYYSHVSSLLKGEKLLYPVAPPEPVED


How the values were obtained:
[1] = pH 7.4
[2] = biological target: T1, p120RasGAP N-terminal SH2 domain …; test: co-crystallisation

Row | Maximum Solubility [1] [µg/mL] | binding result [2] | Molecule
1 | 10000 |  | D[pY]AEPMDA [pY-1087]
2 |  | binds | Ac-EEENI[pY]SVPHDST-NH2 (SMILES CC[C@H](C)[C@H](NC(=O)[C@H](CC(N)=O)NC(=O)[C@H](CCC(=O)O)NC(=O)[C@H](CCC(=O)O)NC(=O)[C@H](CCC(=O)O)NC(C)=O)C(=O)N[C@@H](Cc1ccc(OP(=O)(O)O)cc1)C(=O)N[C@@H](CO)C(=O)N[C@H](C(=O)N1CCC[C@H]1C(=O)N[C@@H](Cc1c[nH]cn1)C(=O)N[C@@H](CC(=O)O)C(=O)N[C@@H](CO)C(=O)N[C@H](C(N)=O)[C@@H](C)O)C(C)C) [p190RhoGAP pTyr-1105 phosphopeptide (residues 1100-1112)]
